Laboratory results from US20220288057A1, “CONJOINT THERAPY FOR TREATING SEIZURE DISORDERS” (XENON PHARMACEUTICALS INC., priority 2021, published 2022).
Where “and” joins values, the source holds several entries; their conditions need not be identical. Identical values can stand only once. Like-named read-outs stand apart in the source and are kept apart here.

Assay: Terminal plasma and brain concentrations in AC-MES studies (UHPLC-MS/MS)
Format: in vivo, mouse
Details: for concentration at 0.5 h / Kp at 0.5 h / concentration at 30 min / Kp at 30 min: CF-1, mouse, in vivo
Protocol: Sample Collection and Preparation: Mice were anesthetized by isoflurane inhalation (according to SOP TECH-018) until they reached a surgical plane of anesthesia. Then a syringe (1 mL syringe with a 22 gauge needle) was inserted under the sternum into the heart (according to SOP TECH-031). Approximately 0.5 mL of blood was collected, deposited into a K2EDTA tube, and stored on ice. Animals were then euthanized by cervical dislocation. Brains were removed, placed into a pre-weighed vial, and snap frozen on dry ice. At the end of the sample collection, blood was centrifuged at 4000 rpm for 10 minutes at 4° C., and the plasma pipetted into a labeled tube. All samples were stored in a −80° C. freezer until the time of bioanalysis.
Plasma Samples: Extraction of plasma samples was carried out by protein precipitation using acetonitrile. Diluted plasma samples (50 μL) were mixed with 50 μL of internal standard (IS) solution in 1:1 acetonitrile:water (v:v) followed by addition of 200 μL of acetonitrile. Samples were vortexed for 30 seconds, centrifuged at 13,000 rpm for 20 minutes, decanted into a 96-well plate and further centrifuged at 4000 rpm for 20 minutes. The samples were analyzed by ultra-high performance liquid chromatography electrospray ionization tandem mass spectrometry (UHPLC-ESI-MS/MS) as described in the bioanalysis procedure below.
Brain Samples: Prior to extraction, pre-weighed whole brains were homogenized in 1:1 acetonitrile:water (v:v) (2 mL per mouse brain) using an IKA T18 Ultra-Turrax Homogenizer at the setting of 4 for approximately 1 minute. The homogenate was centrifuged at 13,000 rpm for 20 minutes and 50 μL of the supernatant were treated exactly as described in above for plasma samples.
Bioanalysis Procedures: All samples, including plasma and brain homogenate extracts (including calibration standards and quality control (QC) samples prepared in K2EDTA mouse plasma), were extracted by protein precipitation. To each 50 μL aliquot of sample, 50 μL of IS solution (2500 ng/mL of Lacosamide in water:acetonitrile (1:1)) and 50 μL of 6% (v:v) phosphoric acid in water were added, then 200 μL acetonitrile was added. The samples in 1.7 mL tubes were vortex-mixed then centrifuged for 20 minutes at 13,000 rpm. Fifty microliters of the supernatant was mixed with 150 μL of water:acetonitrile (1:1) in a 96 well plate, which was centrifuged post-mixing for 20 minutes at 4000 rpm. The samples were then ready for UHPLC-MS/MS analysis.
Samples were analyzed for Compound A by a research-grade UHPLC-MS/MS method using the conditions listed below.
Samples were analyzed for Lacosamide by a research-grade UHPLC-MS/MS method using the conditions listed below.
At least three QC samples, one at each concentration, had to show back-calculated values within ±20% of their nominal concentrations for the whole sample batch to be valid.
The Blinding and Randomization, Clinical Observations, AC-MES Assay, Sample Collection and Preparation, Plasma and Brain Samples Analysis, and Bioanalysis Procedures in Example 4 were identical to those used in Example 2.
Sample concentration determination and Data Processing and Analysis in Example 4 was identical to Example 2.

[1] = Study 2C, analyte Compound A, 3 mg/kg PO 0.5 h + Lacosamide 10 mg/kg PO 2 h
[2] = Study 4F, Compound A 2 mg/kg PO (0.5 h) in combination with Cenobamate 5 mg/kg PO (2 h)
[3] = Study 4G, Compound A 0.5 mg/kg PO (0.5 h) in combination with Cenobamate 5 mg/kg PO (2 h)
[4] = Study 4G, Compound A 1 mg/kg PO (0.5 h) in combination with Cenobamate 5 mg/kg PO (2 h)

SMILES: Cc1cc(N2CCc3cc(F)ccc3C2)cc(C)c1NC(=O)CC(C)(C)C [Compound A, N-[4-(6-fluoro-3,4-dihydro-1H-isoquinolin-2-yl)-2,6-dimethylphenyl]-3,3-dimethylbutanamide]
- concentration at 0.5 h (2 mg/kg, Study 4F, Compound A 2 mg/kg PO alone, 0.5 h pre-treatment, CF-1 mice, read-out: Mean Brain): 250 nM
- concentration at 0.5 h (2 mg/kg, Study 4F, Compound A 2 mg/kg PO alone, 0.5 h pre-treatment, CF-1 mice, read-out: Mean Plasma): 110 nM
- concentration at 0.5 h (Study 2C, analyte Compound A, 3 mg/kg PO 0.5 h + Lacosamide 10 mg/kg PO 2 h, read-out: Mean Plasma): 279 nM
- concentration at 0.5 h (Study 4F, analyte Compound A, 2 mg/kg in combination with Cenobamate 5 mg/kg, read-out: mean plasma concentration): 290 nM
- concentration at 0.5 h (Study 4G, analyte Compound A, 0.5 mg/kg in combination with Cenobamate 5 mg/kg, read-out: mean total plasma concentration): 30 nM
- concentration at 0.5 h (Study 4G, analyte Compound A, 1 mg/kg in combination with Cenobamate 5 mg/kg, read-out: mean total plasma concentration): 110 nM
- concentration at 0.5 h (po, 2 mg/kg, Study 4F, Compound A 2 mg/kg PO, 0.5 h, alone, read-out: mean plasma concentration): 110 nM
- Kp at 0.5 h (po, 2 mg/kg, Study 4F, Compound A 2 mg/kg PO alone, read-out: B/P Ratio (brain to plasma ratio)): 2.32
- concentration at 2 h (Study 2A, Compound A 1 mg/kg PO, 0.5 h, 1 mg/kg, read-out: Mean Plasma): 80 nM
- concentration at 2 h (Study 2A, Compound A 5 mg/kg PO, 0.5 h, 5 mg/kg, read-out: Mean Plasma): 280 nM
- concentration at 2 h (Study 2A, Compound A 10 mg/kg PO, 0.5 h, 10 mg/kg, read-out: Mean Plasma): 370 nM
- concentration at 2 h (Study 2B, Compound A 10 mg/kg PO, 0.5 h, 10 mg/kg, read-out: Mean Plasma): 550 nM
- concentration at 2 h (Study 2C, Compound A 3 mg/kg PO, 0.5 h, alone, 3 mg/kg, read-out: Mean Plasma): 280 nM and 283 nM
- B/P Ratio [1]: 1.95 +
- Mean Brain [1]: 0.54 + μM
- Mean Plasma [1]: 0.28 + μM
- concentration at 2 h (Study 4B, Compound A 5 mg/kg PO, 0.5 h, 5 mg/kg, read-out: mean plasma concentration): 470 nM
- Mean Brain, Compound A [2]: 0.67 µM
- Mean Plasma, Compound A [2]: 0.29 µM
- B/P Ratio, Compound A (Study 4F, Compound A 2 mg/kg PO in combination with Cenobamate 5 mg/kg PO): 2.34
- Mean Brain, Compound A [3]: 0.09 µM
- Mean Plasma, Compound A [3]: 0.03 µM
- B/P Ratio, Compound A (Study 4G, Compound A 0.5 mg/kg PO in combination with Cenobamate 5 mg/kg PO): 3.22
- Mean Brain, Compound A [4]: 0.30 µM
- Mean Plasma, Compound A [4]: 0.11 µM
- B/P Ratio, Compound A (Study 4G, Compound A 1 mg/kg PO in combination with Cenobamate 5 mg/kg PO): 2.76
- concentration at 30 min (male, 1 mg/kg, Study 4A, Compound A 1 mg/kg single oral dose, 30 min pre-treatment, CF-1 mice, read-out: Brain): 150 nM
- concentration at 30 min (male, 1 mg/kg, Study 4A, Compound A 1 mg/kg single oral dose, 30 min pre-treatment, CF-1 mice, read-out: Plasma): 80 nM
- concentration at 30 min (male, 5 mg/kg, Study 4A, Compound A 5 mg/kg single oral dose, 30 min pre-treatment, CF-1 mice, read-out: Brain): 400 nM
- concentration at 30 min (male, 5 mg/kg, Study 4A, Compound A 5 mg/kg single oral dose, 30 min pre-treatment, CF-1 mice, read-out: Plasma): 280 nM
- concentration at 30 min (male, 10 mg/kg, Study 4A, Compound A 10 mg/kg single oral dose, 30 min pre-treatment, CF-1 mice, read-out: Brain): 500 nM
- concentration at 30 min (male, 10 mg/kg, Study 4A, Compound A 10 mg/kg single oral dose, 30 min pre-treatment, CF-1 mice, read-out: Plasma): 370 nM
- Kp at 0.5 h (male, po, 1 mg/kg, Study 2A, Compound A 1 mg/kg PO, 0.5 h, read-out: B/P Ratio): 1.85
- concentration at 0.5 h (male, po, 1 mg/kg, Study 2A, Compound A 1 mg/kg PO, 0.5 h, read-out: Mean Brain): 150 nM
- concentration at 0.5 h (male, po, 1 mg/kg, Study 2A, Compound A 1 mg/kg PO, 0.5 h, read-out: Mean Plasma): 81.5 nM
- concentration at 0.5 h (male, po, 1 mg/kg, Study 4A, Compound A 1 mg/kg PO, 0.5 h, read-out: mean plasma concentration): 80 nM
- Kp at 30 min (male, po, 1 mg/kg, Study 4A, Compound A 1 mg/kg single oral dose, read-out: B/P Ratio (brain to plasma ratio)): 1.85
- Kp at 0.5 h (male, po, 3 mg/kg, Study 2C, Compound A 3 mg/kg PO, 0.5 h, alone, read-out: B/P Ratio): 1.79
- concentration at 0.5 h (male, po, 3 mg/kg, Study 2C, Compound A 3 mg/kg PO, 0.5 h, alone, read-out: Mean Brain): 510 nM
- concentration at 0.5 h (male, po, 3 mg/kg, Study 2C, Compound A 3 mg/kg PO, 0.5 h, alone, read-out: Mean Plasma): 284 nM
- concentration at 0.5 h (male, po, 3 mg/kg, Study 4C, Compound A 3 mg/kg PO, 0.5 h, read-out: plasma concentration): 280 nM
- concentration at 30 min (male, po, 3 mg/kg, Study 4C, Compound A 3 mg/kg single oral dose, CF-1 mice, read-out: Mean Brain): 510 nM
- concentration at 30 min (male, po, 3 mg/kg, Study 4C, Compound A 3 mg/kg single oral dose, CF-1 mice, read-out: Mean Plasma): 280 nM
- Kp at 30 min (male, po, 3 mg/kg, Study 4C, Compound A 3 mg/kg single oral dose, read-out: B/P Ratio (brain to plasma ratio)): 1.79
- Kp at 0.5 h (male, po, 5 mg/kg, Study 2A, Compound A 5 mg/kg PO, 0.5 h, read-out: B/P Ratio): 1.45
- concentration at 0.5 h (male, po, 5 mg/kg, Study 2A, Compound A 5 mg/kg PO, 0.5 h, read-out: Mean Brain): 400 nM
- concentration at 0.5 h (male, po, 5 mg/kg, Study 2A, Compound A 5 mg/kg PO, 0.5 h, read-out: Mean Plasma): 276 nM
- Kp at 0.5 h (male, po, 5 mg/kg, Study 2B, Compound A 5 mg/kg PO, 0.5 h, read-out: B/P Ratio): 1.51
- concentration at 0.5 h (male, po, 5 mg/kg, Study 2B, Compound A 5 mg/kg PO, 0.5 h, read-out: Mean Brain): 710 nM
- concentration at 0.5 h (male, po, 5 mg/kg, Study 4A, Compound A 5 mg/kg PO, 0.5 h, read-out: mean plasma concentration): 280 nM
- Kp at 30 min (male, po, 5 mg/kg, Study 4A, Compound A 5 mg/kg single oral dose, read-out: B/P Ratio (brain to plasma ratio)): 1.45
- concentration at 0.5 h (male, po, 5 mg/kg, Study 4B, Compound A 5 mg/kg PO, 0.5 h, read-out: mean plasma concentration): 470 nM
- concentration at 30 min (male, po, 5 mg/kg, Study 4B, Compound A 5 mg/kg single oral dose, CF-1 mice, read-out: Mean Brain): 710 nM
- concentration at 30 min (male, po, 5 mg/kg, Study 4B, Compound A 5 mg/kg single oral dose, CF-1 mice, read-out: Mean Plasma): 1000 nM
- Kp at 30 min (male, po, 5 mg/kg, Study 4B, Compound A 5 mg/kg single oral dose, read-out: B/P Ratio (brain to plasma ratio)): 1.51
- Kp at 0.5 h (male, po, 7.5 mg/kg, Study 2B, Compound A 7.5 mg/kg PO, 0.5 h, read-out: B/P Ratio): 1.64
- concentration at 0.5 h (male, po, 7.5 mg/kg, Study 2B, Compound A 7.5 mg/kg PO, 0.5 h, read-out: Mean Brain): 870 nM
- concentration at 0.5 h (male, po, 7.5 mg/kg, Study 2B, Compound A 7.5 mg/kg PO, 0.5 h, read-out: Mean Plasma): 530 nM
- concentration at 30 min (male, po, 7.5 mg/kg, Study 4B, Compound A 7.5 mg/kg single oral dose, CF-1 mice, read-out: Mean Brain): 870 nM
- concentration at 30 min (male, po, 7.5 mg/kg, Study 4B, Compound A 7.5 mg/kg single oral dose, CF-1 mice, read-out: Mean Plasma): 530 nM
- Kp at 30 min (male, po, 7.5 mg/kg, Study 4B, Compound A 7.5 mg/kg single oral dose, read-out: B/P Ratio (brain to plasma ratio)): 1.64
- Kp at 0.5 h (male, po, 10 mg/kg, Study 2A, Compound A 10 mg/kg PO, 0.5 h, read-out: B/P Ratio): 1.36
- concentration at 0.5 h (male, po, 10 mg/kg, Study 2A, Compound A 10 mg/kg PO, 0.5 h, read-out: Mean Brain): 500 nM
- concentration at 0.5 h (male, po, 10 mg/kg, Study 2A, Compound A 10 mg/kg PO, 0.5 h, read-out: Mean Plasma): 366 nM
- Kp at 0.5 h (male, po, 10 mg/kg, Study 2B, Compound A 10 mg/kg PO, 0.5 h, read-out: B/P Ratio): 1.64
- concentration at 0.5 h (male, po, 10 mg/kg, Study 2B, Compound A 10 mg/kg PO, 0.5 h, read-out: Mean Brain): 910 nM
- concentration at 0.5 h (male, po, 10 mg/kg, Study 2B, Compound A 10 mg/kg PO, 0.5 h, read-out: Mean Plasma): 553 nM
- concentration at 0.5 h (male, po, 10 mg/kg, Study 4A, Compound A 10 mg/kg PO, 0.5 h, read-out: mean plasma concentration): 370 nM
- Kp at 30 min (male, po, 10 mg/kg, Study 4A, Compound A 10 mg/kg single oral dose, read-out: B/P Ratio (brain to plasma ratio)): 1.36
- concentration at 0.5 h (male, po, 10 mg/kg, Study 4B, Compound A 10 mg/kg PO, 0.5 h, read-out: mean plasma concentration): 550 nM
- concentration at 30 min (male, po, 10 mg/kg, Study 4B, Compound A 10 mg/kg single oral dose, CF-1 mice, read-out: Mean Brain): 910 nM
- concentration at 30 min (male, po, 10 mg/kg, Study 4B, Compound A 10 mg/kg single oral dose, CF-1 mice, read-out: Mean Plasma): 550 nM
- Kp at 30 min (male, po, 10 mg/kg, Study 4B, Compound A 10 mg/kg single oral dose, read-out: B/P Ratio (brain to plasma ratio)): 1.64
